Measurements taken from patent publication US9944600B2, “Piperidine derivatives for GPR119 agonist” (CHONG KUN DANG PHARMACEUTICAL CORP., priority 2012, dated 2018).

How the values were obtained:
human GPR119 receptor = molecular target: T1, human GPR119 receptor (Homo sapiens, UniProt Q8TDV5); test: Activity test for human GPR119 receptor (GeneBLAzer T-Rex GPR 119 CHO-K1 DA cells, fluorescence reporter); format: cell-based; conditions: 5 hours treatment; for activity at 0.1 µM: test compound conc. 0.1 μM; for activity at 0.1 µM / activity at 1 µM / activity at 10 µM: human GPR119 CHO-K1 reporter cells, ratio to vehicle control well, read-out: % Activation; for activity at 1 µM: test compound conc. 1 μM; for activity at 10 µM: test compound conc. 10 μM; for % Activation: human GPR119 receptor expressing cell, test concentrations 0.1, 1, 10 μM (concentration not given)
T1 construct: host or cells: GeneBLAzer T-Rex GPR 119 CHO-K1 DA cells (CHO-K1)
T1 sequence (Q8TDV5 1-335): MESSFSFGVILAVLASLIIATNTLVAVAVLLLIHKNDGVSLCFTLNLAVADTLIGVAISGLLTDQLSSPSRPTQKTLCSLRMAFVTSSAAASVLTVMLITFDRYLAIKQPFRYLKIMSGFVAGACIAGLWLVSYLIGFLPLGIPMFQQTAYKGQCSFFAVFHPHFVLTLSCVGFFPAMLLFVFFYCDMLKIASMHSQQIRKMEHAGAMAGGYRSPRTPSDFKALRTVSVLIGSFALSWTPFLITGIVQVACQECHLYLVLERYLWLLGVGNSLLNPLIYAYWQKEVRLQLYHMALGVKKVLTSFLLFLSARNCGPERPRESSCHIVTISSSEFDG
Procedure: As a human GPR119 receptor expression cell for this test, the cell line “GeneBLAzer™ T-Rex GPR 119 CHO-K1 DA cells” that is commercially available from Invitrogen, was used. The cell was incubated in the DMEM media containing 1% dialyzed fetal bovine serum etc. The cell incubator was kept at constant temperature and constant humidity of 37° C., 5% CO2.
The human GPR119 receptor expressing cell was used to this test. Each of test compounds was added to be final concentrations of 0.1, 1, 10 μM in 96 well and tested in duplicate. A fixed amount of cell was added to each well of 96 well separately, and then treated with the test compound for 5 hours. After treatment of color development agent for 2 hours, the fluorescence value was determined with plate reader. To the luminous wavelength of control well, which was not treated with the agonist sample, but in which only a vehicle (i.e., cell) was contained, the ratio of the luminous wavelength of test well, which was treated with the agonist sample, was calculated, and then converted to obtain % value.
All the results were expressed as mean±SD, and each test groups and the control group were compared using student's t-test to adjudge the effects of each test groups.

GPR 119 Receptor = molecular target: T2, GPR 119 Receptor (Mus musculus, UniProt Q7TQP3); test: Glucose tolerance test in normal mouse (animal test of activity for the GPR 119 receptor); format: in vivo; conditions: normal male C57/6J Jms mice; for Decrease % of AUC at 10 mg/kg: oral glucose 2 g/kg, whole blood glucose AUC
T2 construct: from tissue; host or cells: whole animal: male C57/6J Jms mice (normal) or diet induced obesity C57BL/6J mice
T2 sequence (Q7TQP3 1-335): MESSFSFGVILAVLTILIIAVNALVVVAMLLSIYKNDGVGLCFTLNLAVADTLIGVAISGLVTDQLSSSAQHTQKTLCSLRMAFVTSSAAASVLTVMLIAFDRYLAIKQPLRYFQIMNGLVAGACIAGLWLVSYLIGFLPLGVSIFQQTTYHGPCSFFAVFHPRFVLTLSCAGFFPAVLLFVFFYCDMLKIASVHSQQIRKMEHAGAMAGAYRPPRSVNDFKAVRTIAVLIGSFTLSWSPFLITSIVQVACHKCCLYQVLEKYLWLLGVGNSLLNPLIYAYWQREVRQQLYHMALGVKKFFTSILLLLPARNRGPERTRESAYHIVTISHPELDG
Procedure: Male C57/6J Jms mice of 6-7 weeks of age were fasted for 16 hours before the start of glucose tolerance test. The experimental animal groups consist of: • A. a vehicle group (10% EtOH, 20% HPBCD in saline), • B. a positive control group administered with MBX-2982 (10 mg/kg), and • C. test groups administered with compound 516, 581, 586, 612, 640, 644 or etc. (10 mg/kg).
Before compound administration, that is, at 0 hour, whole blood glucose level was determined using a Glucometer (ACCU-CHEK, Roche). At 30 minutes after compound administration, whole blood glucose level was determined once again, and 20% glucose (2 g/kg/10 mL) was administered orally. Whole blood glucose level was determined at 20, 40, 60, 80, and 120 minutes after 20% glucose administration. Area under the curve (AUC) of whole blood glucose level was obtained using GraphPad Prism 5.0. The effect of glucose tolerance was adjudged with the corrected area under the curve (cAUC), on which the base value of glucose area under the curve was excluded.

Work on CN(C)C(=O)c1ccc(-c2ccc(OCC3CCN(CC(C)(C)F)CC3)cc2)cc1 [Compound 516, 4′-((1-(2-fluoro-2-methylpropyl)piperidin-4-yl)methoxy)-N,N-dimethylbiphenyl-4-carboxamide] yielded an activity at 0.1 µM (human GPR119 receptor) of 185%, an activity at 1 µM (human GPR119 receptor) of 243% and an activity at 10 µM (human GPR119 receptor) of 289%. For the same molecule, the “Decrease % of AUC at 10 mg/kg” value (GPR 119 Receptor) was 43%.

Molecule NC(=O)[C@@H]1CCCN1C(=O)c1ccc(-c2ccc(OCC3CCN(CC4(C(F)(F)F)CCC4)CC3)nc2)cc1 [Compound 581, (S)-1-(4-(6-((1-((1-(trifluoromethyl)cyclobutyl)methyl)piperidin-4-yl)methoxy)pyridine-3-yl)benzoyl)pyrrolidine-2-carboxamide] has an activity at 0.1 µM (human GPR119 receptor) of 254%, an activity at 1 µM (human GPR119 receptor) of 344% and an activity at 10 µM (human GPR119 receptor) of 273%. For the same molecule, the “Decrease % of AUC at 10 mg/kg” value (GPR 119 Receptor) was 50%.

Work on NC(=O)[C@@H]1CCCN1C(=O)c1ccc(-c2ccc(OCC3CCN(CC4(C(F)(F)F)CC4)CC3)nc2)cc1 [Compound 586, (S)-1-(4-(6-((1-((1-(trifluoromethyl)cyclopropyl)methyl)piperidin-4-yl)methoxy)pyridine-3-yl)benzoyl)pyrrolidine-2-carboxamide] yielded an activity at 0.1 µM (human GPR119 receptor) of 213%, an activity at 1 µM (human GPR119 receptor) of 310% and an activity at 10 µM (human GPR119 receptor) of 379%. For the same molecule, the “Decrease % of AUC at 10 mg/kg” value (GPR 119 Receptor) was 34%.

For CC(C)(F)CN1CCC(COc2ccc(-c3ccc(C(=O)N4CCC[C@@H](O)C4)cc3)cc2)CC1 [Compound 612, (R)-(4′-((1-(2-fluoro-2-methylpropyl)piperidin-4-yl)methoxy)biphenyl-4-yl)(3-hydroxypiperidin-1-yl)methanone], the “Decrease % of AUC at 10 mg/kg” value (GPR 119 Receptor) was 50% and the “Decrease % of AUC (drop effect in blood glucose level)” value (GPR 119 Receptor; 10 mg/kg, oral 20% glucose 2 g/kg, whole blood glucose cAUC) was 50%.

In the case of CC(C)(F)CN1CCC(COc2ccc(-c3ccc(C(=O)N4CC[C@H](O)C4)c(F)c3)cc2)CC1 [Compound 640, (S)-(3-fluoro-4′-((1-(2-fluoro-2-methylpropyl)piperidin-4-yl)methoxy)biphenyl-4-yl)(3-hydroxypyrrolidine-1-yl)methanone], the “Decrease % of AUC at 10 mg/kg” value (GPR 119 Receptor) is reported as 52%.

With CC(C)(F)CN1CCC(COc2ccc(-c3ccc(C(=O)N4CCC[C@H]4C(N)=O)c(F)c3)cn2)CC1 [Compound 658, (S)-1-(2-fluoro-4-(6-((1-(2-fluoro-2-methylpropyl)piperidin-4-yl)methoxy)pyridine-3-yl)benzoyl)pyrrolidine-2-carboxamide] the activity at 0.1 µM (human GPR119 receptor) was 289%, the activity at 1 µM (human GPR119 receptor) was 248% and the activity at 10 µM (human GPR119 receptor) was 311%. The “Decrease % of AUC at 10 mg/kg” value (GPR 119 Receptor) was 38%.

CC(C)(F)CN1CCC(COc2ccc(-c3ccc(C(=O)N4CC[C@@H](O)C4)c(F)c3)nc2)CC1 [Compound 768, (R)-(2-fluoro-4-(5-((1-(2-fluoro-2-methylpropyl)piperidin-4-yl)methoxy)pyridine-2-yl)phenyl)(3-hydroxypyrrolidine-1-yl)methanone] showed an activity at 0.1 µM (human GPR119 receptor) of 162%, an activity at 1 µM (human GPR119 receptor) of 260% and an activity at 10 µM (human GPR119 receptor) of 313%. For the same molecule, the “Decrease % of AUC at 10 mg/kg” value (GPR 119 Receptor) was 40%.

Molecule CC(C)(F)CN1CCC(COc2cnc(-c3ccc(C(=O)N4CCC[C@H]4C(N)=O)c(F)c3)cn2)CC1 [Compound 944, (S)-1-(2-fluoro-4-(5-((1-(2-fluoro-2-methylpropyl)piperidin-4-yl)methoxy)pyrazine-2-yl)benzoyl)pyrrolidine-2-carboxamide] has an activity at 0.1 µM (human GPR119 receptor) of 180%, an activity at 1 µM (human GPR119 receptor) of 291% and an activity at 10 µM (human GPR119 receptor) of 310%. For the same molecule, the “Decrease % of AUC at 10 mg/kg” value (GPR 119 Receptor) was 32%.

Molecule CC(C)(F)CN1CCC(COc2cnc(-c3ccc(C(=O)N4CCC[C@H]4C(N)=O)cc3)cn2)CC1 [Compound 950, (S)-1-(4-(5-((1-(2-fluoro-2-methylpropyl)piperidin-4-yl)methoxy)pyrazine-2-yl)benzoyl)pyrrolidine-2-carboxamide] has an activity at 0.1 µM (human GPR119 receptor) of 191%, an activity at 1 µM (human GPR119 receptor) of 232% and an activity at 10 µM (human GPR119 receptor) of 307%. The “Decrease % of AUC at 10 mg/kg” value (GPR 119 Receptor) was 39%.

Molecule CCC(F)(CC)CN1CCC(COc2ccc(-c3ccc(C(=O)N4CCC[C@H]4C(N)=O)c(F)c3)cc2C#N)CC1 [Compound 1000, (S)-1-(3′-cyano-4′-((1-(2-ethyl-2-fluorobutyl)piperidin-4-yl)methoxy)-3-fluorobiphenylcarbonyl)pyrrolidine-2-carboxamide] has an activity at 0.1 µM (human GPR119 receptor) of 311%, an activity at 1 µM (human GPR119 receptor) of 367% and an activity at 10 µM (human GPR119 receptor) of 374%.

NC(=O)[C@@H]1CCCN1C(=O)c1ccc(-c2cnc(OCC3CCN(CC4(C(F)(F)F)CCC4)CC3)cn2)cc1 [Compound 1009, (S)-1-(4-(5-((1-((1-(trifluoromethyl)cyclobutyl)metb.yl)piperidin-4-yl)methoxy)pyrazine-2-yl)benzoyl)pyrrolidine-2-carboxamide] showed an activity at 0.1 µM (human GPR119 receptor) of 235%, an activity at 1 µM (human GPR119 receptor) of 314% and an activity at 10 µM (human GPR119 receptor) of 340%.

For O=C(c1ccc(-c2cnc(OCC3CCN(CC4(C(F)(F)F)CCC4)CC3)cn2)cc1F)N1CCC[C@@H](O)C1 [Compound 1013, (R)-(2-fluoro-4-(5-((1-((1-(trifluoromethyl)cyclobutyl)methyl)piperidin-4-yl)methoxy)pyrazine-2-yl)phenyl)(3-hydroxypiperidin-1-yl)methanone], the “% Activation” value (human GPR119 receptor) was 490%, the activity at 0.1 µM (human GPR119 receptor) was 410% and the activity at 1 µM (human GPR119 receptor) was 490%. It also gave an activity at 10 µM (human GPR119 receptor) of 426%.

For CC(C)(F)CN1CCC(COc2ccc(-c3ccc(C(=O)N4CCC[C@H]4C(N)=O)c(F)c3)c(C#N)c2)CC1 [Compound 1028], the “% Activation” value (human GPR119 receptor) was 402%, the activity at 0.1 µM (human GPR119 receptor) was 187% and the activity at 1 µM (human GPR119 receptor) was 348%. It also gave an activity at 10 µM (human GPR119 receptor) of 402%.

CC(C)(F)CN1CCC(COc2cnc(-c3ccc(C(=O)N4CCC[C@H]4C(N)=O)c(F)c3)nc2)CC1 [Compound 1032, (S)-1-(2-fluoro-4-(5-((1-(2-fluoro-2-methylpropyl)piperidin-4-yl)methoxy)pyrimidin-2-yl)benzoyl)pyrrolidine-2-carboxamide] showed an activity at 0.1 µM (human GPR119 receptor) of 321%, an activity at 1 µM (human GPR119 receptor) of 459% and an activity at 10 µM (human GPR119 receptor) of 430%. For the same molecule, the “Decrease % of AUC at 10 mg/kg” value (GPR 119 Receptor) was 31%.

For CC(C)(F)CN1CCC(COc2cnc(-c3ccc(C(=O)N4CCCC[C@@H]4C(N)=O)c(F)c3)nc2)CC1 [Compound 1037, (R)-1-(2-fluoro-4-(5-((1-(2-fluoro-2-methylpropyl)piperidin-4-yl)methoxy)pyrimidin-2-yl)benzoyl)piperidin-2-carboxamide], the activity at 0.1 µM (human GPR119 receptor) was 223%, the activity at 1 µM (human GPR119 receptor) was 478% and the activity at 10 µM (human GPR119 receptor) was 439%. For the same molecule, the “Decrease % of AUC at 10 mg/kg” value (GPR 119 Receptor) was 42%.

Work on CCC(F)(CC)CN1CCC(COc2cnc(-c3ccc(C(=O)N4CCCC[C@@H]4C(N)=O)c(F)c3)nc2)CC1 [Compound 1055, (R)-1-(4-(5-((1-(2-ethyl-2-fluorobutyl)piperidin-4-yl)methoxy)pyrimidin-2-yl)-2-fluorobenzoyl)piperidine-2-carboxamide] yielded an activity at 0.1 µM (human GPR119 receptor) of 407%, an activity at 1 µM (human GPR119 receptor) of 474% and an activity at 10 µM (human GPR119 receptor) of 408%.

CCC(F)(CC)CN1CCC(COc2ccc(-c3ccc(C(=O)N4CCC[C@H]4C(N)=O)cc3F)cc2C#N)CC1 [Compound 1119, (S)-1-(3′-cyano-4′-((1-(2-ethyl-2-fluorobutyl)piperidin-4-yl)methoxy)-2-fluorobiphenylcarbonyl)pyrrolidine-2-carboxamide] was tested, and the activity at 0.1 µM (human GPR119 receptor) was 406%, the activity at 1 µM (human GPR119 receptor) was 428% and the activity at 10 µM (human GPR119 receptor) was 482%.
